Source: patent publication US20100144712A1 (priority 2007, published 2010)
Values after ≈ are worked out from the molar mass of the structure shown.

How the values were obtained:
Assay type in all cases: cell-based
[1] = tested on: Candida albican ATCC MYA-1003; experiment: In vitro antifungal activity (MIC80), Candida albican ATCC MYA-1003; conditions: Candida; Table 2, MYA 1003; read-out: Minimal inhibitory concentration (MIC80)
Protocol: (§1) In vitro antifungal activities of the inventive antifungal compounds were evaluated using test strains including Candida albican (ATCC 90873, 204276, 62342, 64124, 64550, 96901, MYA-573, MYA-574, MYA-575, MYA-576, MYA-1003) and Aspergillus fumigatus (ATCC 16424). Test samples and positive control samples were prepared by dissolving the inventive compounds and comparative compounds, i.e., amphotericin B, fluconazole and itraconazole, in DMSO, respectively, and each successively diluted with medium to obtain test and positive control solutions having test compound concentrations of 0.125 μg/ml to a maximum concentration not generating turbidity. Minimal inhibitory concentration (MIC80) of each compound was determined as the lowest concentration of the test compounds required to reduce growth by 80% relative to a control strain not treated.
(§2) 1) Test strain: Candida albican ATCC 90873, 204276, 62342, 64124, 64550, 96901, MYA-573, MYA-574, MYA-575, MYA-576, MYA-1003, and Aspergillus fumigatus ATCC 16424 were commercially obtained from The American Type Culture Collection (ATCC) and subcultured in CHEMON Co. Ltd. (amphotericin B was commercially purchased from Sigma, and fluconazole and itraconazole were prepared according to methods described in British Patent No. 2,099,818; and U.S. Pat. No. 4,267,179, respectively).
(§3) 2) Medium and culture condition: Candida albican was cultured in Sabourad Dextrose Agar, YM Agar or Potato Dextrose Agar according to ATCC information at a temperature of 37° C., 35° C., 30° C. or 25° C. Aspergillus fumigatus was cultured in Malt Extract Agar or Potato Dextrose Agar at a temperature ranging from 24 to 27° C.
(§4) 3) Preparation of test samples: the inventive compounds and comparative compounds were each diluted with DMSO to obtain 1 to 2 ml of a test sample in a concentration of 100-folds of the determining maximum concentration (256 μg/ml).
(§5) The test samples were each successively diluted with RPMI 1640 to obtain test solutions having concentrations of […] in a 12×75 mm sterilized disposable culture tube. The final concentration of DMSO was adjusted to […] (v/v).
(§6) 5) Preparation of strain solution and inoculation
(§7) Candida albican strains were each subcultured in Sabourad Dextrose Agar, YM Agar or Potato Dextrose Agar medium at 35° C. for 2˜3 days. In the case of yeasts, a single colony was taken from prominent colonies and suspended in 0.85% sterile physiological saline solution and the turbidity of the suspension was adjusted to 80˜82% at 530 nm, and then diluted 50-fold with RPMI 1640 medium to 1.0×10^3˜5.0×10^3 CFU/ml. The turbidity of fungi was adjusted to 80˜82% and the suspension was diluted 50-fold to […]. Aspergillus fumigatus strains were subcultured in Malt Extract Agar for 7˜10 days, and a single colony was taken from prominent colonies and suspended in 0.85% sterile physiological saline solution and the suspension was adjusted to 0.108 at 530 nm, and then diluted 1000-fold with RPMI 1640 medium to 0.4×10^2˜5×10^4 CFU/ml. The turbidity of fungi was adjusted to 80˜82% and the suspension was diluted 50-fold to 0.4102˜0.5104 CFU/ml.
(§8) The strain solutions thus obtained were each seeded into a sterilized 96-well microplate, 0.1 ml of each test solution were added thereto, and […] of alamarblue was treated to each well (Biosource, #DAL1100). This procedure was repeated 2 times.
(§9) Minimal inhibitory concentration (MIC80) of each compound was determined as the lowest concentration of the test compounds required to reduce growth by 80% relative to a control strain not treated.

[2] = tested on: Candida albican ATCC MYA-574; experiment: In vitro antifungal activity (MIC80), Candida albican ATCC MYA-574; conditions: Candida; Table 2, MYA 574; read-out: Minimal inhibitory concentration (MIC80)
Protocol: as §1, §2, §3, §4, §5, §6, §7, §8, §9

[3] = tested on: Candida albican ATCC 64550; experiment: In vitro antifungal activity (MIC80), Candida albican ATCC 64550; conditions: Candida, ATCC64550; Table 2, 64550; read-out: Minimal inhibitory concentration (MIC80)
Protocol: as §1, §2, §3, §4, §5, §6, §7, §8, §9

[4] = tested on: Candida albican ATCC 64124; experiment: In vitro antifungal activity (MIC80), Candida albican ATCC 64124; conditions: Candida, ATCC64124; Table 2, 64124; read-out: Minimal inhibitory concentration (MIC80)
Protocol: as §1, §2, §3, §4, §5, §6, §7, §8, §9

[5] = tested on: Candida albican ATCC 90873; experiment: In vitro antifungal activity (MIC80), Candida albican ATCC 90873; conditions: Candida, ATCC90873; Table 2, ATCC 90873; read-out: Minimal inhibitory concentration (MIC80)
Protocol: as §1, §2, §3, §4, §5, §6, §7, §8, §9

[6] = tested on: Candida albican ATCC 96901; experiment: In vitro antifungal activity (MIC80), Candida albican ATCC 96901; conditions: Candida, ATCC96901; Table 2, ATCC 96901; read-out: Minimal inhibitory concentration (MIC80)
Protocol: as §1, §2, §3, §4, §5, §6, §7, §8, §9

[7] = tested on: Candida albican ATCC MYA-575; experiment: In vitro antifungal activity (MIC80), Candida albican ATCC MYA-575; conditions: Candida; Table 2, MYA 575; read-out: Minimal inhibitory concentration (MIC80)
Protocol: as §1, §2, §3, §4, §5, §6, §7, §8, §9

[8] = tested on: Candida albican ATCC MYA-576; experiment: In vitro antifungal activity (MIC80), Candida albican ATCC MYA-576; conditions: Candida; Table 2, MYA 576; read-out: Minimal inhibitory concentration (MIC80)
Protocol: as §1, §2, §3, §4, §5, §6, §7, §8, §9

[9] = tested on: Candida albican ATCC MYA-573; experiment: In vitro antifungal activity (MIC80), Candida albican ATCC MYA-573; conditions: Candida; Table 2, MYA 573; read-out: Minimal inhibitory concentration (MIC80)
Protocol: as §1, §2, §3, §4, §5, §6, §7, §8, §9

[10] = tested on: Candida albican ATCC 62342; experiment: In vitro antifungal activity (MIC80), Candida albican ATCC 62342; conditions: Candida, ATCC62342; Table 2, 62342; read-out: Minimal inhibitory concentration (MIC80)
Protocol: as §1, §2, §3, §4, §5, §6, §7, §8, §9

[11] = tested on: Aspergillus fumigatus (ATCC 16424); experiment: In vitro antifungal activity (MIC80), Aspergillus fumigatus ATCC 16424; conditions: Aspergillus fumigatus, ATCC16424, Table 2, ATCC 16424; read-out: Minimal inhibitory concentration (MIC80)
Protocol: as §1, §2, §3, §4, §5, §6, §7, §8, §9
MIC80 of each of the compounds of which antifungal activities can be confirmed by Table 2 was determined using other test strains, i.e., Aspergillus fumigatus ATCC 16424 and MYA-1163, Aspergillus terreus ATCC 28301, Aspergillus flavus ATCC MYA-1004, and Aspergillus niger ATCC 9142.

Structure (SMILES)	MIC80 [1]	MIC80 [2]	MIC80 [3]	MIC80 [4]	MIC80 [5]	MIC80 [6]	MIC80 [7]	MIC80 [8]	MIC80 [9]	MIC80 [10]	MIC80 [11]
C[C@@H](N1CCN(c2ccc(OCCN3CCOCC3)nc2)CC1)[C@](O)(Cn1cncn1)c1ccc(F)cc1F [Example 34, (2R,3R)-2-(2,4-difluorophenyl)-3-(4-(6-(2-morpholinoethoxy)pyridin-3-yl)piperazin-1-yl)-1-(1H-1,2,4-triazol-1-yl)butan-2-ol]	128 µg/mL (≈ 235 µM)	2 µg/mL (≈ 3.68 µM)	2 µg/mL (≈ 3.68 µM)	32 µg/mL (≈ 58.9 µM)	0.125 µg/mL (≈ 0.23 µM)	32 µg/mL (≈ 58.9 µM)	0.125 µg/mL (≈ 0.23 µM)	0.125 µg/mL (≈ 0.23 µM)	2 µg/mL (≈ 3.68 µM)	0.5 µg/mL (≈ 0.92 µM)	
C[C@@H](N1CCN(c2ccc(OCc3cccs3)nc2)CC1)[C@](O)(Cn1cncn1)c1ccc(F)cc1F [Example 35, (2R,3R)-2-(2,4-difluorophenyl)-3-(4-(6-(thiophen-2-ylmethoxy)pyridin-3-yl)piperazin-1-yl)-1-(1H-1,2,4-triazol-1-yl)butan-2-ol]	> 128 µg/mL	1 µg/mL (≈ 1.9 µM)	1 µg/mL (≈ 1.9 µM)	8 µg/mL (≈ 15.2 µM)	0.125 µg/mL (≈ 0.237 µM)	> 128 µg/mL	0.125 µg/mL (≈ 0.237 µM)	0.125 µg/mL (≈ 0.237 µM)	0.5 µg/mL (≈ 0.949 µM)	0.5 µg/mL (≈ 0.949 µM)	
CC(N1CCN(c2ccc(N(C)CCCN3CCOCC3)nc2)CC1)C(O)(Cn1cncn1)c1ccc(F)cc1F (stereo not shown) [Example 36]	128 µg/mL (≈ 224 µM)	8 µg/mL (≈ 14 µM)	16 µg/mL (≈ 28 µM)	128 µg/mL (≈ 224 µM)	2 µg/mL (≈ 3.5 µM)	16 µg/mL (≈ 28 µM)	2 µg/mL (≈ 3.5 µM)	4 µg/mL (≈ 7.01 µM)	8 µg/mL (≈ 14 µM)	4 µg/mL (≈ 7.01 µM)	
CC(N1CCN(c2ccc(N(C)CCc3cccs3)nc2)CC1)C(O)(Cn1cncn1)c1ccc(F)cc1F (stereo not shown) [Example 37]	> 128 µg/mL	2 µg/mL (≈ 3.61 µM)	4 µg/mL (≈ 7.22 µM)	32 µg/mL (≈ 57.8 µM)	0.125 µg/mL (≈ 0.226 µM)	> 128 µg/mL	0.5 µg/mL (≈ 0.903 µM)	0.5 µg/mL (≈ 0.903 µM)	1 µg/mL (≈ 1.81 µM)	1 µg/mL (≈ 1.81 µM)	
CC(N1CCCN(c2ccc(C#N)nc2)CC1)C(O)(Cn1cncn1)c1ccc(F)cc1F (stereo not shown) [Example 39]	16 µg/mL (≈ 35.3 µM)	2 µg/mL (≈ 4.41 µM)	2 µg/mL (≈ 4.41 µM)	128 µg/mL (≈ 282 µM)	0.125 µg/mL (≈ 0.276 µM)	32 µg/mL (≈ 70.6 µM)	0.125 µg/mL (≈ 0.276 µM)	0.125 µg/mL (≈ 0.276 µM)	1 µg/mL (≈ 2.21 µM)	4 µg/mL (≈ 8.82 µM)	
C[C@@H](N1CCCN(c2ccc3ccccc3n2)CC1)[C@](O)(Cn1cncn1)c1ccc(F)cc1F [Example 40, (2R,3R)-2-(2,4-difluorophenyl)-3-(4-(quinolin-2-yl)-1,4-diazepan-1-yl)-1-(1H-1,2,4-triazol-1-yl)butan-2-ol]	> 128 µg/mL	2 µg/mL (≈ 4.18 µM)	2 µg/mL (≈ 4.18 µM)	8 µg/mL (≈ 16.7 µM)	0.125 µg/mL (≈ 0.261 µM)	16 µg/mL (≈ 33.4 µM)	0.125 µg/mL (≈ 0.261 µM)	0.125 µg/mL (≈ 0.261 µM)	0.5 µg/mL (≈ 1.04 µM)	0.25 µg/mL (≈ 0.522 µM)	
C[C@@H](N1CCN(Cc2ccncc2)CC1)[C@](O)(Cn1cncn1)c1ccc(F)cc1F [Example 42, (2R,3R)-2-(2,4-difluorophenyl)-3-(4-((pyridin-4-yl)methyl)piperazin-1-yl)-1-(1H-1,2,4-triazol-1-yl)butan-2-ol]	128 µg/mL (≈ 299 µM)	4 µg/mL (≈ 9.34 µM)	4 µg/mL (≈ 9.34 µM)	64 µg/mL (≈ 149 µM)	0.125 µg/mL (≈ 0.292 µM)	64 µg/mL (≈ 149 µM)	0.5 µg/mL (≈ 1.17 µM)	0.125 µg/mL (≈ 0.292 µM)	1 µg/mL (≈ 2.33 µM)	0.5 µg/mL (≈ 1.17 µM)	
C[C@@H](N1CCN(C(=O)c2nc(-c3ccccc3)no2)CC1)[C@](O)(Cn1cncn1)c1ccc(F)cc1F [Example 45, (4-((2R,3R)-3-(2,4-difluorophenyl)-3-hydroxy-4-(1H-1,2,4-triazol-1-yl)butan-2-yl)piperazin-1-yl)(3-phenyl-1,2,4-oxadiazol-5-yl)methanone]	> 128 µg/mL				0.125 µg/mL (≈ 0.245 µM)	> 128 µg/mL			1 µg/mL (≈ 1.96 µM)		0.125 µg/mL (≈ 0.245 µM)
C[C@@H](N1CCN(C(=O)c2nc(-c3ccc(Br)cc3)no2)CC1)[C@](O)(Cn1cncn1)c1ccc(F)cc1F [Example 46, (3-(4-bromophenyl)-1,2,4-oxadiazol-5-yl)(4-((2R,3R)-3-(2,4-difluorophenyl)-3-hydroxy-4-(1H-1,2,4-triazol-1-yl)butan-2-yl)piperazin-1-yl)methanone]	> 128 µg/mL				0.125 µg/mL (≈ 0.212 µM)	> 128 µg/mL			> 128 µg/mL		0.126 µg/mL (≈ 0.214 µM)
Cc1ccc(-c2noc(C(=O)N3CCN([C@H](C)[C@](O)(Cn4cncn4)c4ccc(F)cc4F)CC3)n2)cc1 [Example 47, (4-((2R,3R)-3-(2,4-difluorophenyl)-3-hydroxy-4-(1H-1,2,4-triazol-1-yl)butan-2-yl)piperazin-1-yl)(3-p-tolyl-1,2,4-oxadiazol-5-yl)methanone]	> 128 µg/mL				0.125 µg/mL (≈ 0.239 µM)	> 128 µg/mL			0.25 µg/mL (≈ 0.478 µM)		0.25 µg/mL (≈ 0.478 µM)
